Assay results published in ChEMBL document CHEMBL3112450, “Synthesis and in vitro antitumor evaluation of primary amine substituted quinazoline linked benzimidazole” (Bioorg Med Chem Lett, 2014).

Assays:
Assay type in all cases: functional
SK-MEL-2 = assay: Cytotoxicity against human SK-MEL-2 cells assessed as cell growth at 10^-8 M after 48 hrs by SRB assay; conditions: SK-MEL-2, 48 h, read-out: Activity
K562 [1] = assay: Cytotoxicity against human K562 cells assessed as cell growth at 10^-8 M after 48 hrs by SRB assay; conditions: K562, 48 h, read-out: Activity
CCRF-CEM = assay: Cytotoxicity against human CCRF-CEM cells assessed as cell growth at 10^-7 M after 48 hrs by SRB assay; conditions: read-out: Activity
M14 [2] = assay: Cytotoxicity against human M14 cells assessed as cell growth at 10^-8 M after 48 hrs by SRB assay; conditions: M14, 48 h, read-out: Activity
SF-295 = assay: Cytotoxicity against human SF295 cells after 48 hrs by SRB assay; conditions: SF-295, 48 h
PC-3 = assay: Cytotoxicity against human PC3 cells assessed as cell growth at 10^-4 M after 48 hrs by SRB assay; conditions: PC-3, 48 h, read-out: Activity
RPMI-8226 [3] = assay: Cytotoxicity against human RPMI8226 cells assessed as cell growth at 10^-8 M after 48 hrs by SRB assay; conditions: RPMI-8226, 48 h, read-out: Activity
SF-268 [4] = assay: Cytotoxicity against human SF268 cells assessed as cell growth at 10^-8 M after 48 hrs by SRB assay; conditions: SF-268, 48 h, read-out: Activity
RPMI-8226 [5] = assay: Cytotoxicity against human RPMI8226 cells assessed as cell growth at 10^-7 M after 48 hrs by SRB assay; conditions: RPMI-8226, 48 h, read-out: Activity
HL-60(TB) = assay: Cytotoxicity against human HL-60(TB) cells assessed as cell growth at 10^-7 M after 48 hrs by SRB assay; conditions: HL-60, 48 h, read-out: Activity
M14 [6] = assay: Cytotoxicity against human M14 cells assessed as cell growth at 10^-7 M after 48 hrs by SRB assay; conditions: M14, 48 h, read-out: Activity
Malme-3M = assay: Cytotoxicity against human MALME-3M cells assessed as cell growth at 10^-8 M after 48 hrs by SRB assay; conditions: read-out: Activity
MCF7 [7] = assay: Cytotoxicity against human MCF7 cells after 48 hrs by SRB assay; conditions: MCF7, 48 h
SNB-19 [8] = assay: Cytotoxicity against human SNB19 cells after 48 hrs by SRB assay; conditions: SNB-19, 48 h
HOP-92 [9] = assay: Cytotoxicity against human HOP92 cells assessed as cell growth at 10^-6 M after 48 hrs by SRB assay; conditions: HOP-92, 48 h, read-out: Activity
SF-268 [10] = assay: Cytotoxicity against human SF268 cells assessed as cell growth at 10^-4 M after 48 hrs by SRB assay; conditions: SF-268, 48 h, read-out: Activity
SK-MEL-5 = assay: Cytotoxicity against human SK-MEL-5 cells assessed as cell growth at 10^-6 M after 48 hrs by SRB assay; conditions: SK-MEL-5, 48 h, read-out: Activity
[11] = Cytotoxicity against human OVCAR4 cells assessed as cell growth at 10^-4 M after 48 hrs by SRB assay; conditions: OVCAR-4, 48 h, read-out: Activity
U-251 = assay: Cytotoxicity against human U251 cells assessed as cell growth at 10^-8 M after 48 hrs by SRB assay; conditions: U-251, 48 h, read-out: Activity
SF-539 = assay: Cytotoxicity against human SF539 cells after 48 hrs by SRB assay; conditions: SF-539, 48 h
SN12C = assay: Cytotoxicity against human SN12C cells assessed as cell growth at 10^-8 M after 48 hrs by SRB assay; conditions: read-out: Activity
NCI-H460 = assay: Cytotoxicity against human NCI-H460 cells assessed as cell growth at 10^-8 M after 48 hrs by SRB assay; conditions: NCI-H460, 48 h, read-out: Activity
HOP-92 [12] = assay: Cytotoxicity against human HOP92 cells assessed as cell growth at 10^-7 M after 48 hrs by SRB assay; conditions: HOP-92, 48 h, read-out: Activity
BT-549 = assay: Cytotoxicity against human BT549 cells assessed as cell growth at 10^-6 M after 48 hrs by SRB assay; conditions: BT-549, 48 h, read-out: Activity
K562 [13] = assay: Cytotoxicity against human K562 cells assessed as cell growth at 10^-6 M after 48 hrs by SRB assay; conditions: K562, 48 h, read-out: Activity
ACHN = assay: Cytotoxicity against human ACHN cells assessed as cell growth at 10^-7 M after 48 hrs by SRB assay; conditions: read-out: Activity
HCC 2998 = assay: Cytotoxicity against human HCC2998 cells after 48 hrs by SRB assay; conditions: HCC 2998, 48 h
CAKI-1 = assay: Cytotoxicity against human Caki1 cells assessed as cell growth at 10^-7 M after 48 hrs by SRB assay; conditions: CAKI-1, 48 h, read-out: Activity
HOP-62 [14] = assay: Cytotoxicity against human HOP62 cells assessed as cell growth at 10^-7 M after 48 hrs by SRB assay; conditions: HOP-62, 48 h, read-out: Activity
MCF7 [15] = assay: Cytotoxicity against human MCF7 cells assessed as cell growth at 10^-4 M after 48 hrs by SRB assay; conditions: MCF7, 48 h, read-out: Activity
COLO 205 = assay: Cytotoxicity against human COLO205 cells after 48 hrs by SRB assay; conditions: COLO 205, 48 h
HCT-15 = assay: Cytotoxicity against human HCT15 cells after 48 hrs by SRB assay; conditions: HCT-15, 48 h
DU-145 = assay: Cytotoxicity against human DU145 cells assessed as cell growth at 10^-4 M after 48 hrs by SRB assay; conditions: DU-145, 48 h, read-out: Activity
NCI-H322M = assay: Cytotoxicity against human NCI-H322M cells assessed as cell growth at 10^-6 M after 48 hrs by SRB assay; conditions: read-out: Activity
SNB-19 [16] = assay: Cytotoxicity against human SNB19 cells assessed as cell growth at 10^-8 M after 48 hrs by SRB assay; conditions: SNB-19, 48 h, read-out: Activity
HOP-62 [17] = assay: Cytotoxicity against human HOP62 cells after 48 hrs by SRB assay; conditions: HOP-62, 48 h
RXF 393 = assay: Cytotoxicity against human RXF393 cells assessed as cell growth at 10^-7 M after 48 hrs by SRB assay; conditions: RXF 393, 48 h, read-out: Activity
786-0 = assay: Cytotoxicity against human 786-0 cells after 48 hrs by SRB assay; conditions: 786-0, 48 h
NCI-H23 = assay: Cytotoxicity against human NCI-H23 cells assessed as cell growth at 10^-7 M after 48 hrs by SRB assay; conditions: NCI-H23, 48 h, read-out: Activity
[18] = read-out: LC50 (the source's name)

C=CCn1c(C)nc2cc(Nc3nc(Nc4ccc5nc(C)n(CC=C)c5c4)c4ccccc4n3)ccc21
growth at 0.01 µM (SK-MEL-2): 96% | growth at 0.01 µM (K562 [1]): 103% | growth at 0.1 µM (CCRF-CEM): 107% | growth at 0.01 µM (M14 [2]): 100% | GI50 (SF-295): 1.44 µM | LC50 (SF-295): 5.24 µM | TGI (SF-295): 2.75 µM | growth at 100 µM (PC-3): -41% | growth at 0.01 µM (RPMI-8226 [3]): 100% | growth at 0.01 µM (SF-268 [4]): 95% | growth at 0.1 µM (RPMI-8226 [5]): 100% | growth at 0.1 µM (HL-60(TB)): 96% | growth at 0.1 µM (M14 [6]): 98% | growth at 0.01 µM (Malme-3M): 95% | GI50 (MCF7 [7]): 0.209 µM | GI50 (SNB-19 [8]): 1.08 µM | TGI (SNB-19 [8]): 2.62 µM | growth at 1 µM (HOP-92 [9]): 45% | growth at 100 µM (SF-268 [10]): -82% | growth at 1 µM (SK-MEL-5): 78% | growth at 100 µM [11]: -29% | growth at 0.01 µM (U-251): 97% | GI50 (SF-539): 1.1 µM | LC50 (concentration giving 50% net cell kill) (SF-539): 4.79 µM | TGI (SF-539): 2.3 µM | growth at 0.01 µM (SN12C): 94% | growth at 0.01 µM (NCI-H460): 102% | growth at 0.1 µM (HOP-92 [12]): 91% | growth at 1 µM (BT-549): 93% | growth at 1 µM (K562 [13]): -45% | growth at 0.1 µM (ACHN): 103% | GI50 (HCC 2998): 1.2 µM | LC50 (50% lethal concentration) (HCC 2998): 5.03 µM | TGI (HCC 2998): 2.45 µM | growth at 0.1 µM (CAKI-1): 97% | growth at 0.1 µM (HOP-62 [14]): 99% | growth at 100 µM (MCF7 [15]): 3% | GI50 (COLO 205): 0.195 µM | TGI (COLO 205): 0.375 µM | GI50 (HCT-15): 0.352 µM | growth at 100 µM (DU-145): -98% | growth at 1 µM (NCI-H322M): 43% | growth at 0.01 µM (SNB-19 [16]): 91% | GI50 (HOP-62 [17]): 0.232 µM | TGI (HOP-62 [17]): 0.552 µM | growth at 0.1 µM (RXF 393): 88% | GI50 (786-0): 0.188 µM | TGI (786-0): 0.362 µM | growth at 0.1 µM (NCI-H23): 93%

C=CCn1c(C)nc2ccc(Nc3nc(Nc4ccc(F)cc4)nc4ccccc34)cc21
growth at 0.01 µM (SK-MEL-2): 98% | growth at 0.01 µM (K562 [1]): 102% | growth at 0.1 µM (CCRF-CEM): 102% | growth at 0.01 µM (M14 [2]): 93% | GI50 (SF-295): 6.08 µM | LC50 (SF-295): 51 µM | TGI (SF-295): 20.3 µM | growth at 100 µM (PC-3): -79% | growth at 0.01 µM (RPMI-8226 [3]): 106% | growth at 0.01 µM (SF-268 [4]): 88% | growth at 0.1 µM (RPMI-8226 [5]): 103% | growth at 0.1 µM (HL-60(TB)): 100% | growth at 0.1 µM (M14 [6]): 97% | growth at 0.01 µM (Malme-3M): 97% | GI50 (MCF7 [7]): 1.48 µM | TGI (MCF7 [7]): 3.44 µM | GI50 (SNB-19 [8]): 9 µM | TGI (SNB-19 [8]): 23.8 µM | CC50 (SNB-19 [8]; [18]): 58.6 µM | growth at 1 µM (HOP-92 [9]): 41% | growth at 100 µM (SF-268 [10]): -59% | growth at 1 µM (SK-MEL-5): 73% | growth at 100 µM [11]: -13% | growth at 0.01 µM (U-251): 97% | GI50 (SF-539): 12.3 µM | LC50 (concentration giving 50% net cell kill) (SF-539): 53.9 µM | TGI (SF-539): 25.7 µM | growth at 0.01 µM (SN12C): 93% | growth at 0.01 µM (NCI-H460): 100% | growth at 0.1 µM (HOP-92 [12]): 80% | growth at 1 µM (BT-549): 82% | growth at 1 µM (K562 [13]): 96% | growth at 0.1 µM (ACHN): 97% | GI50 (HCC 2998): 8.87 µM | LC50 (50% lethal concentration) (HCC 2998): 58.2 µM | TGI (HCC 2998): 23.5 µM | growth at 0.1 µM (CAKI-1): 102% | growth at 0.1 µM (HOP-62 [14]): 100% | growth at 100 µM (MCF7 [15]): -37% | GI50 (COLO 205): 1.75 µM | TGI (COLO 205): 3.25 µM | GI50 (HCT-15): 2.84 µM | LC50 (HCT-15): > 100 µM | TGI (HCT-15): 10.4 µM | growth at 100 µM (DU-145): -84% | growth at 1 µM (NCI-H322M): 85% | growth at 0.01 µM (SNB-19 [16]): 95% | GI50 (HOP-62 [17]): 1.88 µM | TGI (HOP-62 [17]): 3.76 µM | growth at 0.1 µM (RXF 393): 83% | GI50 (786-0): 7.44 µM | TGI (786-0): 23.8 µM | CC50 (786-0; [18]): 65.1 µM | growth at 0.1 µM (NCI-H23): 87%
